Values of other authors as cited in patent publication US20040039017A1, “Urotensin-II receptor antagonists” (priority 2000, published 2004).

Test system: rat-isolated aorta
Conditions: Ames et al. Nature 1999, 401, 282

CC(C)[C@H](NC(=O)[C@@H]1CSSC[C@H](NC(=O)[C@H](CC(=O)O)NC(=O)[C@@H]2CCCN2C(=O)[C@@H](NC(=O)[C@@H](N)CCC(=O)O)[C@@H](C)O)C(=O)N[C@@H](Cc2ccccc2)C(=O)N[C@@H](Cc2c[nH]c3ccccc23)C(=O)N[C@@H](CCCCN)C(=O)N[C@@H](Cc2ccc(O)cc2)C(=O)N1)C(=O)O [Human Urotensin-II]
contractile activity: most potent contractile agonist identified to date
